Test results as given in patent US12492173B2, “Herbicidal substituted N-tetrazolyl aryl carboxamides” (Bayer Aktiengesellschaft, priority 2019, dated 2025).

The compounds below were run on Amaranthus retroflexus (assay: Post-emergence herbicidal action, AMARE). Settings: Dosage 80 g/ha.
Format: in vivo
Design: key: % herbicidal action vs untreated; 100 = plants died, 0 = like control
Method in brief: (§1)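 One-leaf-stage weeds, raised from seed in greenhouse sandy loam, received a single foliar spray of compound as wettable powder or emulsion concentrate with 0.2% wetting agent added. Growth continued under optimal conditions for about 3 weeks before percent damage was scored by eye against controls.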

SMILES	herbicidal action AMARE
CCCn1nnnc1NC(=O)c1ccc(C(F)F)c(C[S+](C)[O-])c1SC (stereo not shown) [Example 3-171]	100
CSc1c(C(=O)Nc2nnnn2C)ccc(C(F)F)c1C[S+](C)[O-] (stereo not shown) [Example 1-171]	100
CCn1nnnc1NC(=O)c1ccc(C(F)(F)F)c(C[S+]([O-])CC2CC2)c1Cl (stereo not shown) [Example 2-315]	100

Same assay, conditions: comparative experiment, post-emergence, 20 g of a.i./ha

SMILES	Herbicidal action against AMARE
CC[S+]([O-])Cc1c(C(F)(F)F)ccc(C(=O)Nc2nnnn2C)c1Br (racemic) [Example 1-384]	90
CCS(=O)(=O)Cc1c(C(F)(F)F)ccc(C(=O)Nc2nnnn2C)c1Br [Example 1-385]	90

Same assay, conditions: post-emergence, dosage 80 g/ha

SMILES	herbicidal action AMARE
CSCc1c(Cl)ccc(C(=O)Nc2nnnn2C)c1Cl [Example 1-559]	100%
CC[S+]([O-])Cc1c(C(F)(F)F)ccc(C(=O)Nc2nnnn2C)c1Br (racemic) [Example 1-384]	90%
Cn1nnnc1NC(=O)c1ccc(I)c(C[S+](C)[O-])c1Cl (racemic) [Example 1-363]	100%
CCSCc1c(C(F)(F)F)ccc(C(=O)Nc2nnnn2C)c1Br [Example 1-383]	90%
CCSCc1c(C(F)(F)F)ccc(C(=O)Nc2nnnn2C)c1Cl [Example 1-299]	100%
CCCn1nnnc1NC(=O)c1ccc(C(F)(F)F)c(CSCC2CC2)c1Cl [Example 3-314]	100%
Cn1nnnc1NC(=O)c1ccc(C(F)(F)F)c(CS(=O)(=O)C2CC2)c1Cl [Example 1-304]	100%
CCS(=O)(=O)Cc1c(C(F)(F)F)ccc(C(=O)Nc2nnnn2C)c1Br [Example 1-385]	90%

These compounds were tested on Viola tricolor (assay: Pre-emergence herbicidal action, VIOTR). Settings: comparative experiment, 80 g of a.i./ha.
Format: in vivo
Design: key to Herbicidal action against VIOTR: % activity: 100 = plants have died, 0 = like control plants
Method in brief: (§2)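 Sown pots (sandy loam) sprayed pre-emergence → greenhouse → visual rating at 3 weeks; % activity vs untreated control, 100% = dead.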

SMILES	Herbicidal action against VIOTR
CC[S+]([O-])Cc1c(C(F)(F)F)ccc(C(=O)Nc2nnnn2C)c1Br (racemic) [Example 1-384]	100
CCSCc1c(C(F)(F)F)ccc(C(=O)Nc2nnnn2C)c1Br [Example 1-383]	100

Same assay, conditions: dosage 320 g/ha

SMILES	herbicidal action VIOTR
CSCc1c(Cl)ccc(C(=O)Nc2nnnn2C)c1Cl [Example 1-559]	100%

Same assay, conditions: dosage 320 g/ha, scored visually after 3 weeks vs untreated controls (100% = plants have died)

SMILES	herbicidal activity VIOTR
CCCn1nnnc1NC(=O)c1ccc(C(F)F)c(C[S+](C)[O-])c1SC (stereo not shown) [Example 3-171]	100%
CSc1c(C(=O)Nc2nnnn2C)ccc(C(F)F)c1C[S+](C)[O-] (stereo not shown) [Example 1-171]	100%
CC[S+]([O-])Cc1c(C(F)(F)F)ccc(C(=O)Nc2nnnn2C)c1Br (racemic) [Example 1-384]	100%
Cn1nnnc1NC(=O)c1ccc(I)c(C[S+](C)[O-])c1Cl (racemic) [Example 1-363]	100%
CCSCc1c(C(F)(F)F)ccc(C(=O)Nc2nnnn2C)c1Br [Example 1-383]	100%
CCn1nnnc1NC(=O)c1ccc(C(F)(F)F)c(C[S+]([O-])CC2CC2)c1Cl (stereo not shown) [Example 2-315]	100%
CCSCc1c(C(F)(F)F)ccc(C(=O)Nc2nnnn2C)c1Cl [Example 1-299]	100%
CCCn1nnnc1NC(=O)c1ccc(C(F)(F)F)c(CSCC2CC2)c1Cl [Example 3-314]	100%
Cn1nnnc1NC(=O)c1ccc(C(F)(F)F)c(CS(=O)(=O)C2CC2)c1Cl [Example 1-304]	100%
CCS(=O)(=O)Cc1c(C(F)(F)F)ccc(C(=O)Nc2nnnn2C)c1Br [Example 1-385]	100%

Each compound was assayed on Setaria viridis (assay: Pre-emergence herbicidal action, SETVI). Settings: comparative experiment, 20 g of a.i./ha.
Format: in vivo
Design: key to Herbicidal action against SETVI: % activity: 100 = plants have died, 0 = like control plants
Method in brief: as §2

SMILES	Herbicidal action against SETVI
Cn1nnnc1NC(=O)c1ccc(I)c(C[S+](C)[O-])c1Cl (racemic) [Example 1-363]	90
CCSCc1c(C(F)(F)F)ccc(C(=O)Nc2nnnn2C)c1Cl [Example 1-299]	90

Same assay, conditions: comparative experiment, 80 g of a.i./ha

SMILES	Herbicidal action against SETVI
CC[S+]([O-])Cc1c(C(F)(F)F)ccc(C(=O)Nc2nnnn2C)c1Br (racemic) [Example 1-384]	100
CCSCc1c(C(F)(F)F)ccc(C(=O)Nc2nnnn2C)c1Br [Example 1-383]	100
CCS(=O)(=O)Cc1c(C(F)(F)F)ccc(C(=O)Nc2nnnn2C)c1Br [Example 1-385]	90

Same assay, conditions: dosage 320 g/ha

SMILES	herbicidal action SETVI
CSCc1c(Cl)ccc(C(=O)Nc2nnnn2C)c1Cl [Example 1-559]	80%

Same assay, conditions: dosage 320 g/ha, scored visually after 3 weeks vs untreated controls (100% = plants have died)

SMILES	herbicidal activity SETVI
CCCn1nnnc1NC(=O)c1ccc(C(F)F)c(C[S+](C)[O-])c1SC (stereo not shown) [Example 3-171]	100%
CSc1c(C(=O)Nc2nnnn2C)ccc(C(F)F)c1C[S+](C)[O-] (stereo not shown) [Example 1-171]	100%
CC[S+]([O-])Cc1c(C(F)(F)F)ccc(C(=O)Nc2nnnn2C)c1Br (racemic) [Example 1-384]	100%
Cn1nnnc1NC(=O)c1ccc(I)c(C[S+](C)[O-])c1Cl (racemic) [Example 1-363]	100%
CCSCc1c(C(F)(F)F)ccc(C(=O)Nc2nnnn2C)c1Br [Example 1-383]	100%
CCn1nnnc1NC(=O)c1ccc(C(F)(F)F)c(C[S+]([O-])CC2CC2)c1Cl (stereo not shown) [Example 2-315]	100%
CCSCc1c(C(F)(F)F)ccc(C(=O)Nc2nnnn2C)c1Cl [Example 1-299]	100%
CCCn1nnnc1NC(=O)c1ccc(C(F)(F)F)c(CSCC2CC2)c1Cl [Example 3-314]	100%
Cn1nnnc1NC(=O)c1ccc(C(F)(F)F)c(CS(=O)(=O)C2CC2)c1Cl [Example 1-304]	100%
CCS(=O)(=O)Cc1c(C(F)(F)F)ccc(C(=O)Nc2nnnn2C)c1Br [Example 1-385]	100%

Each compound was assayed on Pharbitis purpurea (assay: Post-emergence herbicidal action, PHBPU). Settings: Dosage 80 g/ha.
Format: in vivo
Method in brief: as §1

SMILES	herbicidal action PHBPU
CCCn1nnnc1NC(=O)c1ccc(C(F)F)c(C[S+](C)[O-])c1SC (stereo not shown) [Example 3-171]	90
CSc1c(C(=O)Nc2nnnn2C)ccc(C(F)F)c1C[S+](C)[O-] (stereo not shown) [Example 1-171]	90
CCn1nnnc1NC(=O)c1ccc(C(F)(F)F)c(C[S+]([O-])CC2CC2)c1Cl (stereo not shown) [Example 2-315]	100

Same assay, conditions: comparative experiment, post-emergence, 20 g of a.i./ha

SMILES	Herbicidal action against PHBPU
CCS(=O)(=O)Cc1c(C(F)(F)F)ccc(C(=O)Nc2nnnn2C)c1Br [Example 1-385]	80

Same assay, conditions: post-emergence, dosage 80 g/ha

SMILES	herbicidal action PHBPU
CSCc1c(Cl)ccc(C(=O)Nc2nnnn2C)c1Cl [Example 1-559]	100%
CC[S+]([O-])Cc1c(C(F)(F)F)ccc(C(=O)Nc2nnnn2C)c1Br (racemic) [Example 1-384]	90%
Cn1nnnc1NC(=O)c1ccc(I)c(C[S+](C)[O-])c1Cl (racemic) [Example 1-363]	90%
CCSCc1c(C(F)(F)F)ccc(C(=O)Nc2nnnn2C)c1Br [Example 1-383]	90%
CCSCc1c(C(F)(F)F)ccc(C(=O)Nc2nnnn2C)c1Cl [Example 1-299]	90%
CCCn1nnnc1NC(=O)c1ccc(C(F)(F)F)c(CSCC2CC2)c1Cl [Example 3-314]	100%
Cn1nnnc1NC(=O)c1ccc(C(F)(F)F)c(CS(=O)(=O)C2CC2)c1Cl [Example 1-304]	100%
CCS(=O)(=O)Cc1c(C(F)(F)F)ccc(C(=O)Nc2nnnn2C)c1Br [Example 1-385]	90%

Each compound was assayed on Echinochloa crus-galli (assay: Pre-emergence herbicidal action, ECHCG). Settings: comparative experiment, 80 g of a.i./ha.
Format: in vivo
Design: key to Herbicidal action against ECHCG: % activity: 100 = plants have died, 0 = like control plants
Method in brief: as §2

SMILES	Herbicidal action against ECHCG
CC[S+]([O-])Cc1c(C(F)(F)F)ccc(C(=O)Nc2nnnn2C)c1Br (racemic) [Example 1-384]	100
CCSCc1c(C(F)(F)F)ccc(C(=O)Nc2nnnn2C)c1Br [Example 1-383]	100
CCS(=O)(=O)Cc1c(C(F)(F)F)ccc(C(=O)Nc2nnnn2C)c1Br [Example 1-385]	100

Same assay, conditions: dosage 320 g/ha

SMILES	herbicidal action ECHCG
CSCc1c(Cl)ccc(C(=O)Nc2nnnn2C)c1Cl [Example 1-559]	100%

Same assay, conditions: dosage 320 g/ha, scored visually after 3 weeks vs untreated controls (100% = plants have died)

SMILES	herbicidal activity ECHCG
CCCn1nnnc1NC(=O)c1ccc(C(F)F)c(C[S+](C)[O-])c1SC (stereo not shown) [Example 3-171]	100%
CSc1c(C(=O)Nc2nnnn2C)ccc(C(F)F)c1C[S+](C)[O-] (stereo not shown) [Example 1-171]	100%
CC[S+]([O-])Cc1c(C(F)(F)F)ccc(C(=O)Nc2nnnn2C)c1Br (racemic) [Example 1-384]	100%
Cn1nnnc1NC(=O)c1ccc(I)c(C[S+](C)[O-])c1Cl (racemic) [Example 1-363]	100%
CCSCc1c(C(F)(F)F)ccc(C(=O)Nc2nnnn2C)c1Br [Example 1-383]	100%
CCn1nnnc1NC(=O)c1ccc(C(F)(F)F)c(C[S+]([O-])CC2CC2)c1Cl (stereo not shown) [Example 2-315]	100%
CCSCc1c(C(F)(F)F)ccc(C(=O)Nc2nnnn2C)c1Cl [Example 1-299]	100%
CCCn1nnnc1NC(=O)c1ccc(C(F)(F)F)c(CSCC2CC2)c1Cl [Example 3-314]	90%
Cn1nnnc1NC(=O)c1ccc(C(F)(F)F)c(CS(=O)(=O)C2CC2)c1Cl [Example 1-304]	100%
CCS(=O)(=O)Cc1c(C(F)(F)F)ccc(C(=O)Nc2nnnn2C)c1Br [Example 1-385]	100%

These compounds were tested on Viola tricolor (assay: Post-emergence herbicidal action, VIOTR). Settings: Dosage 80 g/ha.
Format: in vivo
Design: key: % herbicidal action vs untreated; 100 = plants died, 0 = like control
Method in brief: as §1

SMILES	herbicidal action VIOTR
CCCn1nnnc1NC(=O)c1ccc(C(F)F)c(C[S+](C)[O-])c1SC (stereo not shown) [Example 3-171]	100
CSc1c(C(=O)Nc2nnnn2C)ccc(C(F)F)c1C[S+](C)[O-] (stereo not shown) [Example 1-171]	90
CCn1nnnc1NC(=O)c1ccc(C(F)(F)F)c(C[S+]([O-])CC2CC2)c1Cl (stereo not shown) [Example 2-315]	100

Same assay, conditions: comparative experiment, post-emergence, 20 g of a.i./ha

SMILES	Herbicidal action against VIOTR
CC[S+]([O-])Cc1c(C(F)(F)F)ccc(C(=O)Nc2nnnn2C)c1Br (racemic) [Example 1-384]	100
CCSCc1c(C(F)(F)F)ccc(C(=O)Nc2nnnn2C)c1Br [Example 1-383]	100
CCS(=O)(=O)Cc1c(C(F)(F)F)ccc(C(=O)Nc2nnnn2C)c1Br [Example 1-385]	100

Same assay, conditions: post-emergence, dosage 80 g/ha

SMILES	herbicidal action VIOTR
CSCc1c(Cl)ccc(C(=O)Nc2nnnn2C)c1Cl [Example 1-559]	100%
CC[S+]([O-])Cc1c(C(F)(F)F)ccc(C(=O)Nc2nnnn2C)c1Br (racemic) [Example 1-384]	100%
Cn1nnnc1NC(=O)c1ccc(I)c(C[S+](C)[O-])c1Cl (racemic) [Example 1-363]	100%
CCSCc1c(C(F)(F)F)ccc(C(=O)Nc2nnnn2C)c1Br [Example 1-383]	100%
CCSCc1c(C(F)(F)F)ccc(C(=O)Nc2nnnn2C)c1Cl [Example 1-299]	100%
CCCn1nnnc1NC(=O)c1ccc(C(F)(F)F)c(CSCC2CC2)c1Cl [Example 3-314]	100%
Cn1nnnc1NC(=O)c1ccc(C(F)(F)F)c(CS(=O)(=O)C2CC2)c1Cl [Example 1-304]	100%
CCS(=O)(=O)Cc1c(C(F)(F)F)ccc(C(=O)Nc2nnnn2C)c1Br [Example 1-385]	100%
